Measured values taken from PubChem BioAssay (NCI).
“And” between values parts separate entries of the source, which are not always exact repeats. Equal values may be shown once.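 Protocol summary: plate cells (96-well), add compound at 5 concentrations, incubate 48 h, interpolate endpoints linearly. GI50 is the concentration that inhibits growth by half. TGI denotes the concentration required for complete inhibition of growth.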

What was measured:
Experiment in all cases: DTP human tumour cell line panel, 48 h
EKVX NSCLC = system: EKVX NSCLC
HCC-2998 colon = system: HCC-2998 colon
DLD-1 colon = system: DLD-1 colon
HOP-92 NSCLC = system: HOP-92 NSCLC
NCI-H460 lung = system: NCI-H460 lung
SNB-78 CNS = system: SNB-78 CNS
T-47D breast = system: T-47D breast
BT-549 breast = system: BT-549 breast
MDA-MB-231 breast = system: MDA-MB-231 breast
HOP-18 NSCLC = system: HOP-18 NSCLC
DMS 114 small cell lung = system: DMS 114 small cell lung

## COC1=CC(=O)C2C(C1=O)C(c1ccccc1)[C@H]2C (some centres not stated)
EKVX NSCLC
  TGI: > 100 µM
HCC-2998 colon
  TGI: > 100 µM
DLD-1 colon
  TGI: > 10 µM
HOP-92 NSCLC
  TGI: 49.4 µM
NCI-H460 lung
  TGI: > 100 µM
SNB-78 CNS
  TGI: > 10 µM

## CN1C(=O)N[C@H]2[C@@H]3NC(=O)c4ccc(Br)n4[C@@H]3C[C@]21O
EKVX NSCLC
  GI50: 0.868 µM
  TGI: 4.98 µM
HCC-2998 colon
  GI50: 0.13 µM
  TGI: 1.75 µM
HOP-92 NSCLC
  GI50: 0.0955 µM
  TGI: 1.28 µM
T-47D breast
  GI50: 0.0313 µM
  TGI: 0.23 µM
BT-549 breast
  GI50: 0.0739 µM
  TGI: 0.405 µM
NCI-H460 lung
  GI50: 0.0403 µM
  TGI: 1.5 µM
MDA-MB-231 breast
  GI50: 0.165 µM
  TGI: 2.69 µM

## C/C=C/CC(C)[C@@H](O)[C@H](NC)C(=O)O (some centres not stated)
HOP-18 NSCLC
  TGI: > 100 µM
EKVX NSCLC
  TGI: > 100 µM
HCC-2998 colon
  TGI: > 100 µM
DLD-1 colon
  TGI: > 100 µM
HOP-92 NSCLC
  TGI: > 100 µM
DMS 114 small cell lung
  TGI: > 100 µM
NCI-H460 lung
  TGI: > 100 µM

## CC(C)(C)CC(C)(C)NCc1cc(C(C)(C)C)cc(CNC(C)(C)CC(C)(C)C)c1O
EKVX NSCLC
  GI50: 2.78 µM
  TGI: 14.1 µM
HCC-2998 colon
  GI50: 2.58 µM
  TGI: 8.07 µM
HOP-92 NSCLC
  GI50: 0.548 µM
  TGI: 4.2 µM
T-47D breast
  GI50: 2.09 µM
  TGI: 5.14 µM
BT-549 breast
  GI50: 4.15 µM
  TGI: 14.9 µM
NCI-H460 lung
  GI50: 3.49 µM
  TGI: 12.9 µM
MDA-MB-231 breast
  GI50: 1.21 µM
  TGI: 3.78 µM

## CCCN(CCCC(NC(C)=O)C(=O)NCc1ccccc1)C(=O)NCCCl (configuration not stated)
HOP-18 NSCLC
  TGI: > 100 µM
EKVX NSCLC
  TGI: > 100 µM
HCC-2998 colon
  TGI: > 100 µM
DLD-1 colon
  TGI: > 100 µM
HOP-92 NSCLC
  TGI: > 100 µM
DMS 114 small cell lung
  TGI: > 100 µM
NCI-H460 lung
  TGI: > 100 µM

## CCN(CC)CCCC(C)N=C(C1=C(C(=NC(C)CCCN(CC)CC)c2cccc(OC)c2)C(=O)NC1=O)c1cccc(OC)c1 (configuration not stated)
HCC-2998 colon
  GI50: 1.05 µM
  TGI: 2.2 µM
HOP-92 NSCLC
  GI50: 0.993 µM
  TGI: 3.63 µM
T-47D breast
  GI50: 2.02 µM
  TGI: 10.4 µM
BT-549 breast
  GI50: 2.24 µM
  TGI: 8.44 µM
NCI-H460 lung
  GI50: 0.841 µM
  TGI: 2.13 µM
MDA-MB-231 breast
  GI50: 1.17 µM
  TGI: 3.78 µM

## O=C(O)C(Cl)(c1ccccc1)c1ccccc1
EKVX NSCLC
  TGI: > 100 µM
HCC-2998 colon
  TGI: > 100 µM
HOP-92 NSCLC
  TGI: > 100 µM
T-47D breast
  TGI: > 100 µM
BT-549 breast
  TGI: > 100 µM
NCI-H460 lung
  TGI: > 100 µM
MDA-MB-231 breast
  TGI: > 100 µM

## Cc1ccc(S(=O)(=O)NNC(=O)c2cc(C)c(C)cc2N)cc1
EKVX NSCLC
  TGI: > 100 µM
HCC-2998 colon
  TGI: > 100 µM
HOP-92 NSCLC
  TGI: > 100 µM
T-47D breast
  TGI: > 100 µM
BT-549 breast
  TGI: > 100 µM
NCI-H460 lung
  TGI: > 100 µM
MDA-MB-231 breast
  TGI: > 100 µM

## Cc1cc(C)c(NC(=S)NC(=O)c2ccccc2)cc1C
EKVX NSCLC
  TGI: > 100 µM
HCC-2998 colon
  TGI: > 100 µM
HOP-92 NSCLC
  TGI: > 100 µM
T-47D breast
  TGI: > 100 µM
BT-549 breast
  TGI: > 100 µM
NCI-H460 lung
  TGI: > 100 µM
MDA-MB-231 breast
  TGI: > 100 µM

## CO[C@H](C(=O)[C@@H](O)[C@@H](C)O)[C@@H]1Cc2cc3cc(OC4CC(OC5CC(O)C(O)C(C)O5)C(O)C(C)O4)c(C)c(O)c3c(O)c2C(=O)[C@H]1OC1CC(OC2CC(OC3CC(C)(O)C(O)C(C)O3)C(O)C(C)O2)C(O)C(C)O1 (some centres not stated)
HOP-18 NSCLC
  GI50: 0.000558 µM
EKVX NSCLC
  GI50: 0.042 µg/mL and 0.0335 µg/mL
HCC-2998 colon
  GI50: 0.0395 µg/mL and 0.0243 µg/mL
HOP-92 NSCLC
  GI50: 0.0278 µg/mL and 0.016 µg/mL
NCI-H460 lung
  GI50: 0.0183 µg/mL and 0.015 µg/mL

## COc1nc(N)nc2c1ncn2C1OC(CO)C(O)C1O (configuration not stated)
EKVX NSCLC
  GI50: > 5000 µM
  TGI: > 5000 µM
HCC-2998 colon
  GI50: > 5000 µM
  TGI: > 5000 µM
HOP-92 NSCLC
  GI50: 2640 µM
  TGI: > 5000 µM
T-47D breast
  GI50: > 5000 µM
  TGI: > 5000 µM
BT-549 breast
  GI50: > 5000 µM
  TGI: > 5000 µM
NCI-H460 lung
  GI50: 1650 µM
  TGI: > 5000 µM
MDA-MB-231 breast
  GI50: > 5000 µM
  TGI: > 5000 µM

## Cc1ccc(C)c(C2NC(=O)c3ccccc3N2)c1 (configuration not stated)
EKVX NSCLC
  TGI: > 100 µM
HCC-2998 colon
  TGI: 31.4 µM
HOP-92 NSCLC
  TGI: > 100 µM
T-47D breast
  TGI: > 100 µM
BT-549 breast
  TGI: > 71.6 µM
NCI-H460 lung
  TGI: 34.5 µM
MDA-MB-231 breast
  TGI: 72.7 µM

## COc1ccccc1CNCCCN1C(=O)c2ccc3c4c(ccc(c24)C1=O)C(=O)N(CCCCNCCCN)C3=O
EKVX NSCLC
  GI50: 2 µM
  TGI: 5.75 µM
HCC-2998 colon
  GI50: 1.12 µM
  TGI: 3.03 µM
HOP-92 NSCLC
  GI50: 2.01 µM
  TGI: 7.04 µM
T-47D breast
  GI50: 1.13 µM
  TGI: 3.65 µM
BT-549 breast
  GI50: 2.23 µM
  TGI: 4.51 µM
NCI-H460 lung
  GI50: 0.825 µM
  TGI: 2.82 µM
MDA-MB-231 breast
  GI50: 2.64 µM
  TGI: 13.2 µM

## CCOC(=O)C(C)(C)Oc1ccc(/C=C/C(=O)c2ccc(Cl)cc2)cc1
EKVX NSCLC
  TGI: > 100 µM
DLD-1 colon
  TGI: 27.9 µM
DMS 114 small cell lung
  TGI: 36.8 µM
NCI-H460 lung
  TGI: > 100 µM

## CN(C)C=C1C(Cl)=C(C=O)CC(C=O)=C1Cl
HOP-18 NSCLC
  TGI: 26.8 µM
EKVX NSCLC
  TGI: 54.3 µM
HCC-2998 colon
  TGI: 28.7 µM
DLD-1 colon
  TGI: 20.9 µM
HOP-92 NSCLC
  TGI: 21.8 µM
DMS 114 small cell lung
  TGI: 26.1 µM
NCI-H460 lung
  TGI: 39.7 µM

## COc1ccc(OC)c2c1[nH]c(=O)c1c3ncccc3cn21
EKVX NSCLC
  GI50: 4.91 µM
  TGI: > 100 µM
HCC-2998 colon
  GI50: 4.44 µM
  TGI: > 100 µM
HOP-92 NSCLC
  GI50: 0.854 µM
  TGI: 6.26 µM
T-47D breast
  GI50: 3.54 µM
  TGI: > 100 µM
BT-549 breast
  GI50: > 100 µM
  TGI: > 100 µM
NCI-H460 lung
  GI50: 1.61 µM
  TGI: 3.39 µM
MDA-MB-231 breast
  GI50: 4.87 µM
  TGI: > 100 µM

## COC(=O)c1cc(O)c2c(c1C(=O)OC)C[C@H]1[C@@H]3CC=C4C[C@@H](O)CC[C@]4(C)[C@H]3CC[C@]21C
EKVX NSCLC
  GI50: 3.29 µM
  TGI: 21.7 µM
HCC-2998 colon
  GI50: 3.74 µM
  TGI: 16 µM
HOP-92 NSCLC
  GI50: 2.59 µM
  TGI: 8.2 µM
T-47D breast
  GI50: 1.51 µM
  TGI: 6.91 µM
BT-549 breast
  GI50: 2.29 µM
  TGI: 6.98 µM
NCI-H460 lung
  GI50: 3.24 µM
  TGI: 12.7 µM
MDA-MB-231 breast
  GI50: 2.52 µM
  TGI: 7.41 µM

## CN/N=C(\C)C(CN(C)C)C(c1ccccc1)c1c(O)c2ccccc2oc1=O (configuration not stated)
EKVX NSCLC
  TGI: > 100 µM
HCC-2998 colon
  TGI: > 100 µM
HOP-92 NSCLC
  TGI: 6.78 µM
T-47D breast
  TGI: > 100 µM
BT-549 breast
  TGI: > 100 µM
NCI-H460 lung
  TGI: > 100 µM
MDA-MB-231 breast
  TGI: > 100 µM

## NC(=O)c1cccc(Nc2nccc(Nc3cccc4[nH]ncc34)n2)c1
EKVX NSCLC
  GI50: > 25 µM
  TGI: > 25 µM
HCC-2998 colon
  GI50: 14.7 µM
  TGI: > 25 µM
HOP-92 NSCLC
  GI50: 3 µM
  TGI: 12.2 µM
T-47D breast
  GI50: 2.99 µM
  TGI: > 17.9 µM
BT-549 breast
  GI50: 9.4 µM
  TGI: > 25 µM
NCI-H460 lung
  GI50: 9.05 µM
  TGI: > 25 µM
MDA-MB-231 breast
  GI50: 8.02 µM
  TGI: > 25 µM

## Cn1c2ccc(Br)cc2c2c3c(c4c5ccccc5[nH]c4c21)C(=O)N(O)C3=O
EKVX NSCLC
  GI50: 0.232 µM
  TGI: 0.896 µM
HCC-2998 colon
  GI50: 0.473 µM
  TGI: 1.57 µM
HOP-92 NSCLC
  GI50: 0.0893 µM
  TGI: 0.451 µM
T-47D breast
  GI50: 0.109 µM
  TGI: 0.737 µM
BT-549 breast
  GI50: 0.149 µM
  TGI: 0.45 µM
NCI-H460 lung
  GI50: 0.04 µM
  TGI: 0.182 µM
MDA-MB-231 breast
  GI50: 0.21 µM
  TGI: 0.607 µM

## C=C[C@@]1(O)CCCC2=C(C(=O)OCC)CC[C@]21C
HOP-18 NSCLC
  TGI: > 100 µM
EKVX NSCLC
  TGI: > 100 µM
HCC-2998 colon
  TGI: > 100 µM
DLD-1 colon
  TGI: > 100 µM
HOP-92 NSCLC
  TGI: > 100 µM
DMS 114 small cell lung
  TGI: > 100 µM
NCI-H460 lung
  TGI: > 100 µM
